Measured values reported in ChEMBL document CHEMBL1201862, “PubChem BioAssay data set” (2004).
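Exposure lasted 48 hours, with cells grown in 96-well plates and compounds tested at five concentrations. GI50 = concentration required for 50% inhibition of growth.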 Active and inactive are the calls of the source. No stated cut-off is given here; in the data, active = GI50 up to about 1.1 µM and inactive = higher.

Assays:
Assay in all cases: NCI-60 cell line screen, 48 h
UO-31 = system: UO-31
HCC 2998 = system: HCC 2998
LOX IMVI = system: LOX IMVI
SK-OV-3 = system: SK-OV-3
HT-29 = system: HT-29
NCI-H460 = system: NCI-H460
SF-539 = system: SF-539
HL-60 = system: HL-60
TK-10 = system: TK-10
M14 = system: M14
COLO 205 = system: COLO 205
A498 = system: A498
T47D = system: T47D
Malme-3M = system: Malme-3M
HCT-15 = system: HCT-15
OVCAR-4 = system: OVCAR-4
SK-MEL-2 = system: SK-MEL-2
SK-MEL-28 = system: SK-MEL-28
HOP-92 = system: HOP-92
OVCAR-8 = system: OVCAR-8

Row | Compound | GI50 (UO-31) | GI50 (HCC 2998) | GI50 (LOX IMVI) | GI50 (SK-OV-3) | GI50 (HT-29) | GI50 (NCI-H460) | GI50 (SF-539) | GI50 (HL-60) | GI50 (TK-10) | GI50 (M14) | GI50 (COLO 205) | GI50 (A498) | GI50 (T47D) | GI50 (Malme-3M) | GI50 (HCT-15) [µM] | GI50 (OVCAR-4) | GI50 (SK-MEL-2) | GI50 (SK-MEL-28) | GI50 (HOP-92) | GI50 (OVCAR-8)
1 | COc1ccc2nc3cc(Cl)ccc3c(Nc3ccc(O)c(CN4CCN(C)CC4)c3)c2c1 | 1.9 µM (inactive) | 1.19 µM (inactive) | 1.71 µM (inactive) | 5.79 µM (inactive) | 1.67 µM (inactive) | 1.72 µM (inactive) | 1.79 µM (inactive) | 1.95 µM (inactive) | 1.97 µM (inactive) | 1.99 µM (inactive) | 1.63 µM (inactive) | 4.51 µM (inactive) | 2.09 µM (inactive) | 1.79 µM (inactive) | 2.31 | 1.65 µM (inactive) | 1.81 µM (inactive) | 1.92 µM (inactive) | 1.72 µM (inactive) | 1.79 µM (inactive)
2 | NC1=Nc2ccccc2Sc2nncn21 | > 100 µM (inactive) | > 100 µM (inactive) | > 100 µM (inactive) | > 100 µM (inactive) | > 100 µM (inactive) | > 100 µM (inactive) | > 100 µM (inactive) | > 100 µM (inactive) | > 100 µM (inactive) | > 100 µM (inactive) | > 100 µM (inactive) | > 100 µM (inactive) | > 100 µM (inactive) | > 100 µM (inactive) | > 100 | > 100 µM (inactive) | > 100 µM (inactive) | > 100 µM (inactive) | > 100 µM (inactive) | > 100 µM (inactive)
3 | O=C(O)c1nc2ccc(Cl)cc2[nH]c1=O | 46.8 µM (inactive) | > 100 µM (inactive) | > 100 µM (inactive) | > 100 µM (inactive) | > 100 µM (inactive) | > 100 µM (inactive) | > 100 µM (inactive) | > 100 µM (inactive) | > 100 µM (inactive) | > 100 µM (inactive) | > 100 µM (inactive) | > 100 µM (inactive) | > 100 µM (inactive) | > 100 µM (inactive) | > 100 | > 100 µM (inactive) | > 100 µM (inactive) | > 100 µM (inactive) | > 100 µM (inactive) | > 100 µM (inactive)
4 | O=C1C=C(C2=C(C3=CC(=O)c4ccccc4C3=O)C(=O)c3ccccc3C2=O)C(=O)c2ccccc21 | 2.85 µM (inactive) | 16.9 µM (inactive) | 3.36 µM (inactive) | 20.9 µM (inactive) | 3.12 µM (inactive) | 14.8 µM (inactive) | 8.28 µM (inactive) | 1.21 µM (inactive) | 6.21 µM (inactive) | 8.87 µM (inactive) | 3.94 µM (inactive) | 16.9 µM (inactive) | 6.19 µM (inactive) | 2.11 µM (inactive) | 9.89 | 6.03 µM (inactive) | 17.2 µM (inactive) | 14 µM (inactive) | 2.45 µM (inactive) | 5.62 µM (inactive)
5 | NC1CC(Cl)c2c(Cl)sc(Cl)c21 (stereo not given) | > 100 µM (inactive) | 53.2 µM (inactive) | > 100 µM (inactive) | > 100 µM (inactive) | > 100 µM (inactive) | > 100 µM (inactive) | > 100 µM (inactive) | > 100 µM (inactive) | > 100 µM (inactive) | > 100 µM (inactive) | > 100 µM (inactive) | > 100 µM (inactive) | > 100 µM (inactive) | > 100 µM (inactive) | > 100 | > 100 µM (inactive) | > 100 µM (inactive) | > 100 µM (inactive) | > 100 µM (inactive) | > 100 µM (inactive)
6 | COC(=O)c1ccccc1CC1Cc2cc3c(cc2C1)CCC3 | 39.4 µM (inactive) | 42.5 µM (inactive) | 24 µM (inactive) | 49.4 µM (inactive) | 29.2 µM (inactive) | 48.2 µM (inactive) | 54.2 µM (inactive) | 9.75 µM (inactive) | > 100 µM (inactive) | 38.8 µM (inactive) | 23.8 µM (inactive) | 49.4 µM (inactive) | 50.9 µM (inactive) | 21.3 µM (inactive) | 48.8 | 39.5 µM (inactive) | 19.4 µM (inactive) | 29.3 µM (inactive) | 26.9 µM (inactive) | 56.8 µM (inactive)
7 | Cc1nnc(SCc2nc(C#N)c(C#N)nc2CSc2nnc(C)s2)s1 | 8.49 µM (inactive) | 16.5 µM (inactive) | 8.89 µM (inactive) | 33.3 µM (inactive) | 18.2 µM (inactive) | 24.2 µM (inactive) | 19.6 µM (inactive) | 1.79 µM (inactive) | 6.82 µM (inactive) | 16.6 µM (inactive) | 11.5 µM (inactive) | 27.4 µM (inactive) | 5.73 µM (inactive) | 5.75 µM (inactive) | 7.66 | 15.2 µM (inactive) | 25.2 µM (inactive) | 26.9 µM (inactive) | 12.9 µM (inactive) | 12.9 µM (inactive)
8 | CCCCCCCCCCC/C=C(/C(=O)CCCO[Si](C)(C)C(C)(C)C)C(=O)OC | > 100 µM (inactive) | > 100 µM (inactive) | > 100 µM (inactive) | > 100 µM (inactive) | > 100 µM (inactive) | > 100 µM (inactive) | > 100 µM (inactive) | > 100 µM (inactive) | > 100 µM (inactive) | > 100 µM (inactive) | > 100 µM (inactive) | > 100 µM (inactive) | > 100 µM (inactive) | > 100 µM (inactive) | > 100 | > 100 µM (inactive) | > 100 µM (inactive) | > 100 µM (inactive) | > 100 µM (inactive) | > 100 µM (inactive)
9 | O=C(/C=C/c1ccc(C(F)(F)F)cc1)c1c([O-])on[n+]1-c1ccccc1 | 1.91 µM (inactive) | 1.98 µM (inactive) | 0.403 µM (active) | 14.3 µM (inactive) | 0.889 µM (active) | 2.29 µM (inactive) | 2.03 µM (inactive) | 0.173 µM (active) | 1.65 µM (inactive) | 2.3 µM (inactive) | 1.75 µM (inactive) | 7.05 µM (inactive) | 1.8 µM (inactive) | > 100 µM (inactive) | 1.31 | 5.33 µM (inactive) | 2.81 µM (inactive) | 1.61 µM (inactive) | 1.6 µM (inactive) | 1.92 µM (inactive)
10 | CCOc1cc2c(cc1O)C=C[C@@H]1[C@@H]2CC[C@]2(C)[C@@H](O)CC[C@@H]12 | 6.08 µM (inactive) | 6.34 µM (inactive) | 3.87 µM (inactive) | 3.34 µM (inactive) | 10 µM (inactive) | 2.05 µM (inactive) | 2.04 µM (inactive) | 0.579 µM (active) | 14.4 µM (inactive) | 2.8 µM (inactive) | 21.1 µM (inactive) | 7.11 µM (inactive) | 6.01 µM (inactive) | 1.5 µM (inactive) | 0.562 | 24.9 µM (inactive) | 4.38 µM (inactive) | 22.3 µM (inactive) | 29.9 µM (inactive) | 4.29 µM (inactive)
11 | CCOC(=O)c1c(SC)nc(-c2ccc(Cl)cc2)sc1=N.[O-][Cl+3]([O-])([O-])O | 33.8 µM (inactive) | 22.7 µM (inactive) | 36.4 µM (inactive) | 37.2 µM (inactive) | 25.8 µM (inactive) | 26 µM (inactive) | 32.1 µM (inactive) | 35 µM (inactive) | 44.3 µM (inactive) | 45.4 µM (inactive) | 21.8 µM (inactive) | 31.5 µM (inactive) | 31.9 µM (inactive) | 20.5 µM (inactive) | 22.9 | 30.8 µM (inactive) | 20.2 µM (inactive) | 61.9 µM (inactive) | 80.2 µM (inactive) | 23.5 µM (inactive)
12 | c1ccc(/N=C2/SC(c3ccccc3)(c3ccccc3)c3ccccc32)cc1 | > 100 µM (inactive) | > 100 µM (inactive) | 71.6 µM (inactive) | > 100 µM (inactive) | > 100 µM (inactive) | > 100 µM (inactive) | > 100 µM (inactive) | > 100 µM (inactive) | > 100 µM (inactive) | > 100 µM (inactive) | > 100 µM (inactive) | > 100 µM (inactive) | > 100 µM (inactive) | > 100 µM (inactive) | > 100 | > 100 µM (inactive) | > 100 µM (inactive) | > 100 µM (inactive) | > 100 µM (inactive) | > 100 µM (inactive)
13 | c1ccc(NNN2NC(c3ccccc3)C2c2ccccc2)cc1 (stereo not given) | 36.6 µM (inactive) | > 100 µM (inactive) | > 100 µM (inactive) | > 100 µM (inactive) | > 100 µM (inactive) | 72.4 µM (inactive) | > 100 µM (inactive) | 49.5 µM (inactive) | > 100 µM (inactive) | > 100 µM (inactive) | > 100 µM (inactive) | > 100 µM (inactive) | > 100 µM (inactive) | 28.9 µM (inactive) | > 100 | 86.1 µM (inactive) | > 100 µM (inactive) | > 100 µM (inactive) | > 100 µM (inactive) | > 100 µM (inactive)
14 | NC(C(=O)O)c1cc(O)no1 (stereo not given) | > 100 µM (inactive) | > 100 µM (inactive) | > 100 µM (inactive) | > 100 µM (inactive) | > 100 µM (inactive) | > 100 µM (inactive) | > 100 µM (inactive) | > 60 µM (inactive) | > 100 µM (inactive) | > 100 µM (inactive) | > 100 µM (inactive) | > 100 µM (inactive) | > 100 µM (inactive) | > 100 µM (inactive) | > 100 | > 100 µM (inactive) | > 100 µM (inactive) | > 100 µM (inactive) | > 100 µM (inactive) | > 100 µM (inactive)
